Experimental data: patent publication US8921424B2, “Histone deacetylase inhibitors, process for preparation and uses thereof” (Zhejiang Hisun Pharmaceutical Co. Ltd., priority 2007, dated 2014)
Read-outs that look alike come from different tables or passages of the source.

Tests used:
HL-60 = assay: Cell-based proliferation assay (SRB), HL-60; details: Homo sapiens
Colo205 = assay: Cell-based proliferation assay (SRB), Colo205; details: Homo sapiens
Method: (§1) Cell-Based Proliferation Assay for Determination of GI50 Values
(§2) A rapid multiwell plate assay using Sulforhodamine B (SRB) protein stain was adopted to evaluate the growth inhibitory effects of the compounds of the present invention. The screening panel of cancer cell lines includes Colo205 and HCT116 colon cancer cells, MDA-MB231 and MDA-MB435 chest cancer cells, A549 lung cancer cells, and Chinese hamster ovary cell line CHO, which were obtained from ATCC.
(§3) The cell line Colo205 is grown in RPMI 1640 medium containing 2 mM L-glutamine, 5% fetal bovine serum, and 1.0 mM sodium pyruvic acid. Cell lines A549 and MDA-MB231 are grown in RPMI 1640 medium containing 2 mM L-glutamine and 5% fetal bovine serum. The cell line MDA-MB435 is grown in DMEM medium containing 2 mM L-glutamine and 5% fetal bovine serum. The cell lines HCT 116 is grown in IMEM medium containing 2 mM L-glutamine and 5% fetal bovine serum. The CHO cell line, used as a normal control on toxicity, is grown in a special medium for cell line. For a typical screening experiment, A549 and Colo205 cells are inoculated into 96-well microtiter plates, with 100 μL per well, and 2000 and 5000 cells per well respectively for either cell line. MDA-MB435, HCT116, MDA-MB231 and CHO cells are also inoculated into 96-well microtiter plates, with 6000 cells per well. After cell inoculation, the microtiter plates are incubated at 37° C., 5% CO2, and 100% relative humidity for 24 hr in order to make cells adhere to well wall.
(§4) After 24 h incubation or time zero for drug addition, with each cell line 50 μl of cold 50% (w/v) TCA is added to wells used for control to fix cells in situ. Also at time zero, cells in other wells are treated with 100 μl of compound of different concentrations for 24 hr, 48 hr, and 72 hr respectively, with varying final compound concentration (0.1 μM, 1 μM, 5 μM 10 μM). For each treatment duration at each compound concentration, there are triplicate wells, as well as an array of control wells including a blank control well (cell culture medium only, no cells), a no-compound control well (adding same volume of cell culture medium but no compound), a positive control well (treated with Suberoylanilide hydroxamic acid (SAHA)), and normal cell well control (CHO cells). Following the addition of compounds, cell plates are incubated for 24 h, 48 h or 72 h per treatment group at 37° C., 5% CO2, and 100% relative humidity. The Treatment is then terminated by addition of cold TCA and incubation of 1 hr at 4° C. The supernatant is discarded, and all wells are washed five times with de-ioned water and air dried. Then each well is added with 100 μl sulforhodamine B (SRB) solution (0.4% (w/v) made in 1% acetic acid) and cell plates are incubated for 20-30 minutes at room temperature. After staining, unbound dye is removed by washing five times with 1% acetic acid and the plates are air dried. Bound stain is subsequently solubilized with 10 mM (200 μL) Tris base with the help of 5 min platform vibration or pipetting up and down, and the absorbance is read on an automated plate reader (M5 detection system, MD Group Ltd.) at a wavelength of 565 nm (calibrated zero reading of blank control at wavelength of 690 nm). The analytical software, XL-fit has been used to generate GI50 from a series of data thus obtained.

MDAMB435 = assay: Cell-based proliferation assay (SRB), MDAMB435; details: Homo sapiens
Method: as §1, §2, §3, §4

BXPC-3 = assay: Cell-based proliferation assay (SRB), BXPC-3; details: Homo sapiens
SKOV-3 = assay: Cell-based proliferation assay (SRB), SKOV-3; details: Homo sapiens
Method: as §1, §2, §3, §4

HCT116 = assay: Cell-based proliferation assay (SRB), HCT116; details: Homo sapiens
Method: as §1, §2, §3, §4

HDACs = assay: In vitro HDACi assay (BIOMOL fluorescent-based HDAC activity assay); type: biochemical
Method: (§5) In Vitro HDACi Assay for Determination of IC50 Values
(§6) The assay has been carried out in white 96 well formats according to the BIOMOL's method. […] The reaction mixture was incubated at room temperature for 2 hours. Flur de lys Developer was added and the reaction was incubated for 10 min. Briefly, deacetylation of the substrate sensitizes to the developer, which then generates a fluorophore. The fluorophore is excited with 360 nm light and the emitted light (460 nm) is detected on a fluorometric plate reader (Molecular Device Ultra Microplate detection system, MD Group Ltd).
(§7) The analytical software, Prism 4.0 (GraphPad Software Inc) has been used to generate IC50 from a series of data.

HDAC6 = HDAC6 (Homo sapiens (Human), UniProt Q9UBN7); assay: In vitro HDACi assay, HDAC6; type: biochemical; details: Table 3; read-out: IC50 (nM) HDAC6
HDAC6, sequence (Q9UBN7 whole entry, species assumed): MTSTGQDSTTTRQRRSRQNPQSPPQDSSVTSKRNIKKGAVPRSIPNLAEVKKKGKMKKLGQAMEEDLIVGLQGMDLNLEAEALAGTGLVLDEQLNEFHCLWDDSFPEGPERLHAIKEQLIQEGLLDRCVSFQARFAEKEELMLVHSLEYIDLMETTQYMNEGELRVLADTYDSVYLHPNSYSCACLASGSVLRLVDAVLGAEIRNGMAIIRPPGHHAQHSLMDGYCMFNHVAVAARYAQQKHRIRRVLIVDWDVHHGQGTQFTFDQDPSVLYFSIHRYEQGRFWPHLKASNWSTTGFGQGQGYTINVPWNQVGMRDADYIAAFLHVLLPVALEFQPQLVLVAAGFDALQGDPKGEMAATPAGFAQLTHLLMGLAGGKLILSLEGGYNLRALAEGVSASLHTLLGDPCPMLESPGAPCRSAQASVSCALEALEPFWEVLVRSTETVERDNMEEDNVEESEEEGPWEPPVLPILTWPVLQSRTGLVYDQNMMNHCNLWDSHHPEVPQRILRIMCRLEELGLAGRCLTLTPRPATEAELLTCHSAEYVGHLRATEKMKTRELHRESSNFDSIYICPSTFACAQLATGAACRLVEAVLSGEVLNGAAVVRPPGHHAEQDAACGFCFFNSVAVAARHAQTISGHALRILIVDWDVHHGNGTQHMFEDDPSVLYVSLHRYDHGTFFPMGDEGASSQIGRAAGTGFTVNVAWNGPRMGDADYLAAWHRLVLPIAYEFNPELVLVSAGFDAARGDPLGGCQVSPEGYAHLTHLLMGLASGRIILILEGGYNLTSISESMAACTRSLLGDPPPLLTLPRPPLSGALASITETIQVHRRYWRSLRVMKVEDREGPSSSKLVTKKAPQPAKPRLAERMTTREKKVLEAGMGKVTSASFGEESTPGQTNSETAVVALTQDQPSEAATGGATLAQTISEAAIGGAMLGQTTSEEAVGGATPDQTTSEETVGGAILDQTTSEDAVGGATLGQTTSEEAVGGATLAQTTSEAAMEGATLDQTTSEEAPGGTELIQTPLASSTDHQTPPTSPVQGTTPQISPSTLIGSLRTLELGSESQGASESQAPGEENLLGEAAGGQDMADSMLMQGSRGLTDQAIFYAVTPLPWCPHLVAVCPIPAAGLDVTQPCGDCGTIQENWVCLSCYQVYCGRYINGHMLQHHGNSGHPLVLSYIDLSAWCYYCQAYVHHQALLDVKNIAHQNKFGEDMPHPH
Method: as §5, §6, §7

[1] = Microsomal stability and clearance; type: in vitro ADME, human, mouse; details: microsomal stability; Table 4
Method: Measure of Microsomal Stability and Clearance with Compounds of this Invention
Verapamil (positive control) and compound solution, both at 10 mM, are diluted 200 fold. There are six reaction time points in the experiment (0 min, 5 min, 15 min, 30 min, 45 min, and 60 min), and triplicate samples are used for each data point. There are controls for time zero and negative drug effect (negative control containing no incubation buffer or enzyme). For each compound or Verapamil sample, there are also samples treated with compound or Verapamil at concentrations of no positive effect (at 5 μM and 2.5 μM, respectively). Diluted positive control (Verapamil) and compound solution are mixed with pre-heated (37° C.) incubation buffer (100 mM potassium phosphate buffer, NADPH regeneration system solution B, NAPDH regeneration system solution A, HLM/MLM in Milli-Q ultrapure water), and incubated at 37° C. for 10 min. 100 μL of stop solution mixture is (containing 80% acetonitrile, and 20% DMSO, both of HPLC grade) is dispensed into wells of separate sampling plates into each well. At each reaction time point (0 min, 5 min, 15 min, 30 min, 45 min, and 60 min) 50 μL of reaction solution is taken from wells in the incubation plate and transferred to its corresponding well in the sampling plate, and mixed by pipetting up and down with stop solution already added there. The sampling plates are then covered, placed on ice, and centrifuged at 2,000 rpm at 4° C. for 15 min. 100 μL supernatant is then taken from each well to LC/MS analysis (or stored at 4° C. in refrigerator until analysis).
Data analysis: % remaining of compound is calculated by area of each time point with respect to time 0% remaining against time (min) curve is plotted using the first-phase exponential decay equation y=y0e(−kT) on the Prism 4.0. Results are shown in the format of TOP, K, t1/2 (min), R2 value and % remaining against time curve.

MDAMB231 = assay: Cell-based proliferation assay (SRB), MDAMB231; details: Homo sapiens, MDA-MB-231; Table 4
Method: as §1, §2, §3, §4

[2] = Table 3, read-out: IC50 (nM) HDACs
[3] = Table 4, read-out: HDAC enzyme inhibition activity IC50

| Compound | GI50 (HL-60; HL-60, Table 3) [µM] | GI50 (Colo205; COLO 205, Table 3) [µM] | GI50 (MDAMB435; MDA-MB-435, Table 3) [µM] | GI50 (BXPC-3; BXPC-3, Table 3) [µM] | GI50 (SKOV-3; SK-OV-3, Table 3) [µM] | GI50 (HCT116; HCT-116, Table 3) [µM] | IC50 (HDACs; [2]) [nM] | IC50 (HDAC6) [nM] | GI50 (HL-60; HL-60, Table 4) [µM] | GI50 (Colo205; COLO 205, Table 4) [µM] | half-life [1] [h] | GI50 (MDAMB435; MDA-MB-435, Table 4) [µM] | IC50 (HDACs; [3]) [nM] | GI50 (MDAMB231) [µM] | GI50 (SKOV-3; SK-OV-3, Table 4) [µM] | GI50 (HCT116; HCT-116, Table 4) [µM] | GI50 (BXPC-3; BXPC-3, Table 4) [µM] |
| --- | --- | --- | --- | --- | --- | --- | --- | --- | --- | --- | --- | --- | --- | --- | --- | --- | --- |
| CCN(CC)CCSc1ccc(/C=C/C(=O)NO)cc1NC(=O)C(Cl)Cl [Example 13, 3-(3-(2,2-dichloroacetamido)-4-(2-(diethylamino)ethylthio)phenyl)-N-hydroxy-acrylamide] | 4.31 | 5.63 | 5.96 | 97.7 | 3.82 | 2.56 |  |  |  |  |  |  |  |  |  |  |  |
| C=CCCCNc1cc(/C=C/C(=O)NO)ccc1SCCN(CC)CC [Example 12, 3-(4-(2-(diethylamino)ethylthio)-3-(pent-4-enylamino)phenyl)-N-hydroxy-acrylamide] |  |  |  |  |  |  | > 100 | 310 |  |  |  |  |  |  |  |  |  |
| CCN(CC)CCSc1ccc(/C=C/C(=O)NO)cc1N [Example 9, 3-(3-amino-4-(2-(diethylamino)ethylthio)phenyl)-N-hydroxy-acrylamide] |  |  |  |  |  |  | > 100 | 295 |  |  |  |  |  |  |  |  |  |
| CCN(CC)CCSc1ccc(/C=C/C(=O)NO)cc1NCCCc1ccccc1 [Example 1, 3-(4-(2-(diethylamino)ethylthio)-3-(3-phenylpropylamino)phenyl)-N-hydroxy-acrylamide] | 3.52 | 5.68 | 3.33 | 15 | 4.57 | 0.78 | 98 | 627 | 3.52 | 5.68 | 1.4 | 3.33 | 98000 | 3.49 | 4.57 | 0.78 |  |
| C=CCNc1cc(/C=C/C(=O)NO)ccc1SCCN(CC)CC [Example 7, 3-(3-(allylamino)-4-(2-(di-ethylamino)ethylthio)phenyl)-N-hydroxy-acrylamide] |  |  |  |  |  |  | > 100 | 350 |  |  |  |  |  |  |  |  |  |
| CCN(CC)CCSc1ccc(/C=C/C(=O)NO)cc1NCc1ccccc1 [Example 6, 3-(3-(benzylamino)-4-(2-(di-ethylamino)ethylthio)phenyl)-N-hydroxy-acrylamide] | 1.32 | 2.28 | 1.95 | 4.33 | 2.81 | 0.78 | 35 | 275 |  |  | 2.5 |  | 96000 | 4.39 |  |  |  |
| CCN(CC)CCSc1ccc(/C=C/C(=O)NO)cc1NC(C)=O [Example 4] |  |  |  |  |  |  | > 100 | 357 | 1.63 | 2 | 1.6 | 3.56 | 86000 | 4.63 | 0.7 | 2.02 | 3.56 |
| CCN(CC)CCSc1ccc(/C=C/C(=O)NO)cc1NC [Example 8, 3-(4-(2-(diethylamino)ethylthio)-3-(methylamino)phenyl)-N-hydroxy-acrylamide] | 15.2 | 10.6 | 16.6 | 16 | 15.6 | 13.9 | 95 | 800 |  |  |  |  |  |  |  |  |  |
| CCCCCNC(=O)Nc1cc(/C=C/C(=O)NO)ccc1SCCN(CC)CC [Example 10, 3-(4-(2-(diethylamino)ethylthio)-3-(3-pentylureido)phenyl)-N-hydroxy-acrylamide] | 15.7 | 17.6 | 10.2 | 19.9 | 16.9 | 18.2 | 55 | 200 |  |  |  |  |  |  |  |  |  |
| CCCNc1cc(/C=C/C(=O)NO)ccc1SCCN(CC)CC [Example 3, 3-(4-(2-(diethylamino)ethylthio)-3-(propylamino)phenyl)-N-hydroxy-acrylamide] | 1.98 | 2.95 | 2.6 | 14.5 | 2.58 | 3.65 | 19 | 653 | 1.98 | 2.95 | 1.8 | 2.6 | 19000 | 2.98 | 2.58 | 3.65 |  |
